From patent US20020026053A1, “Novel 3-(substituted) -2- indolinones compounds and use thereof as inhibitors of protein kinase activity” (priority 1997, published 2002) come the findings set out here.

Assay [1] deals with PDGF-R. The assay can be described thus: PDGF-R Assay (cellular ELISA, U1242 cells). It is filed as cell-based. More on the design: concentration or dose not given beside the values. A digest of the protocol:
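U1242 cells seeded in 0.5% serum, serum-starved, then exposed to compound for 2 hr at 37°C before 5–10 min ligand stimulation and lysis in HNTG. Lysate captured on receptor-antibody-coated plates; phosphotyrosine detected with polyclonal anti-pTyr, goat anti-rabbit IgG and ABTS/H2O2, A410 (ref 630 nm), versus untreated cells.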
A general note: An ELISA detects its analyte on a solid surface through an enzyme-linked reagent.

In assay [2] the target is T1, EGFR (Homo sapiens, UniProt P00533).
T1 construct: endogenous in cells; host or cells: A431 cells (lysate, captured with SUMO1 anti-EGFR antibody)
Description: Biochemical EGFR Assay. More on the design: concentration or dose not given beside the values. A digest of the protocol:
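EGFR from A431 lysate was captured on anti-EGFR-coated wells and preincubated 30 min with compound (diluted 1:10 in TBS) at room temperature. After ATP/MnCl2 phosphorylation for 5 min, the reaction was stopped with EDTA. Phosphotyrosine was detected by ELISA (anti-phosphotyrosine, peroxidase conjugate, ABTS) at 410 nm.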

T1 sequence (P00533 25-1210): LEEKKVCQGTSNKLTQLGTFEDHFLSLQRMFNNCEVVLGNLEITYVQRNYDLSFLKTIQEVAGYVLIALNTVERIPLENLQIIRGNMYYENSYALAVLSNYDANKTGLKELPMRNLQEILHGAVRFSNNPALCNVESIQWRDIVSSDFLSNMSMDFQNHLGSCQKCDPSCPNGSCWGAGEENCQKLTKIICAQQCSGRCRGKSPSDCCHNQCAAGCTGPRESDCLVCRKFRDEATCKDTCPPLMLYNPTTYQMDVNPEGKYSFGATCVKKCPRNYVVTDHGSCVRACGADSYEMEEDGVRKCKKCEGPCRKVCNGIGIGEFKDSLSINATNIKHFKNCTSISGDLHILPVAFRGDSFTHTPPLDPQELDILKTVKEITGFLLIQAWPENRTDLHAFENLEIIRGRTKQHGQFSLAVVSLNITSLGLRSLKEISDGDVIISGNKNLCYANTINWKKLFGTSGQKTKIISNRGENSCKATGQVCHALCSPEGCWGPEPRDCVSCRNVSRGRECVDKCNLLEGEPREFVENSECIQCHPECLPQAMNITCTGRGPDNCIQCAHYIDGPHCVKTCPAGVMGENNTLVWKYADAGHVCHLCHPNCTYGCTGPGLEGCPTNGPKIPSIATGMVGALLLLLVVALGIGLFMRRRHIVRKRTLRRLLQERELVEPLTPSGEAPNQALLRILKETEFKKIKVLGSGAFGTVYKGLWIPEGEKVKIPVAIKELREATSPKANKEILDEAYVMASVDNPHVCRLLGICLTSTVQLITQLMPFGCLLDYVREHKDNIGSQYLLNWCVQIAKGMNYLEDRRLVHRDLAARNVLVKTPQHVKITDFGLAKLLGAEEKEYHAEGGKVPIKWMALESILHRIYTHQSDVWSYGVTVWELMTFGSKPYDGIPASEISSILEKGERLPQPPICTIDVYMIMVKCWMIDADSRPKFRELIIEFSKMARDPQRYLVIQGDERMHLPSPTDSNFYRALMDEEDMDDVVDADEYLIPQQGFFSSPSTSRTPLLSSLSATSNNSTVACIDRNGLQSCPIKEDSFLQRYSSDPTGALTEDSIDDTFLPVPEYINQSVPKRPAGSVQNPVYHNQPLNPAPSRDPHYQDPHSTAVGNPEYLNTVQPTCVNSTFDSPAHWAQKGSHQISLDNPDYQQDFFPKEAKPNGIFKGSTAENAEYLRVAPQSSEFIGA

Consider `Cc1c(Br)ccc2c1C(=Cc1ccc(Cl)cc1)C(=O)N2` [10736/C02], for which the “PDGF Kinase % Inhibition (P.119)” value in assay [1] came to 2.7%. Further, the “Biochem EGFR % Inhibition (P.167)” value in assay [2] is on record as −47.1%.

On to `Cc1c(Br)ccc2c1C(=Cc1ccccc1C(F)(F)F)C(=O)N2` [10736/C03], for which, in assay [1], the “PDGF Kinase % Inhibition (P.119)” value was 25.5%. The “Biochem EGFR % Inhibition (P.167)” value in assay [2] amounted to 0.3%.

Consider `Cc1cccc(C=C2C(=O)Nc3ccc(Br)c(C)c32)c1` [10736/C04], for which the “PDGF Kinase % Inhibition (P.119)” value in assay [1] was 8.4%. Moreover, the “Biochem EGFR % Inhibition (P.167)” value in assay [2] turned out to be 90.2%.

Turning to `Cc1ccc(C=C2C(=O)Nc3ccc(Br)c(C)c32)cc1` [10736/C05], the “PDGF Kinase % Inhibition (P.119)” value in assay [1] came out at 16.7%. In addition, in assay [2], the “Biochem EGFR % Inhibition (P.167)” value was 16.8%.

Take `Cc1c(Br)ccc2c1C(=Cc1cccc(Cl)c1)C(=O)N2` [10736/C06]: in assay [1], the “PDGF Kinase % Inhibition (P.119)” value is 26.4%. In addition, in assay [2], the “Biochem EGFR % Inhibition (P.167)” value worked out at 4.8%.

Take `Cc1c(Br)ccc2c1C(=Cc1cccc(F)c1)C(=O)N2` [10736/C07]: in assay [1], the “PDGF Kinase % Inhibition (P.119)” value turned out to be 14.1%. In addition, in assay [2], the “Biochem EGFR % Inhibition (P.167)” value is given as −8.1%.

For `Cc1c(Br)ccc2c1C(=Cc1ccccc1F)C(=O)N2` [10736/C08], in assay [1], the “PDGF Kinase % Inhibition (P.119)” value came out at 1.4%. In addition, the “Biochem EGFR % Inhibition (P.167)” value in assay [2] is recorded as −0.5%.

Take `CCc1ccc(C=C2C(=O)Nc3ccc(Br)c(C)c32)cc1` [10736/C09]: the “PDGF Kinase % Inhibition (P.119)” value in assay [1] is given as −9.6%. The “Biochem EGFR % Inhibition (P.167)” value in assay [2] came to 4.6%.

For `COc1cccc(C=C2C(=O)Nc3ccc(Br)c(C)c32)c1` [10736/C10], the “PDGF Kinase % Inhibition (P.119)” value in assay [1] is 1.4%. The “Biochem EGFR % Inhibition (P.167)” value in assay [2] is −0.3%.

Turning to `Cc1c(Br)ccc2c1C(=Cc1ccccc1Cl)C(=O)N2` [10736/C11], the “PDGF Kinase % Inhibition (P.119)” value in assay [1] was 0.5%. In addition, the “Biochem EGFR % Inhibition (P.167)” value in assay [2] is given as −4.5%.

For `CNS(=O)(=O)c1ccc2c(c1)C(=Cc1ccc(Cl)cc1)C(=O)N2` [10736/D02], in assay [1], the “PDGF Kinase % Inhibition (P.119)” value is reported as −10.5%. Also, the “Biochem EGFR % Inhibition (P.167)” value in assay [2] is listed as 1.8%.

Consider `CNS(=O)(=O)c1ccc2c(c1)C(=Cc1ccccc1C(F)(F)F)C(=O)N2` [10736/D03], for which the “PDGF Kinase % Inhibition (P.119)” value in assay [1] was determined as 14.5%. For the same compound, the “Biochem EGFR % Inhibition (P.167)” value in assay [2] was −3.7%.

On to `CNS(=O)(=O)c1ccc2c(c1)C(=Cc1cccc(C)c1)C(=O)N2` [10736/D04], for which the “PDGF Kinase % Inhibition (P.119)” value in assay [1] came out at 15.0%. In addition, the “Biochem EGFR % Inhibition (P.167)” value in assay [2] was found to be 24.9%.

`CNS(=O)(=O)c1ccc2c(c1)C(=Cc1ccc(C)cc1)C(=O)N2` [10736/D05]: in assay [1], the “PDGF Kinase % Inhibition (P.119)” value is on record as 3.6%. Further, the “Biochem EGFR % Inhibition (P.167)” value in assay [2] is listed as −7.9%.

For `CNS(=O)(=O)c1ccc2c(c1)C(=Cc1cccc(Cl)c1)C(=O)N2` [10736/D06], the “PDGF Kinase % Inhibition (P.119)” value in assay [1] is reported as 19.8%. In addition, the “Biochem EGFR % Inhibition (P.167)” value in assay [2] is 29.7%.

Take `CNS(=O)(=O)c1ccc2c(c1)C(=Cc1cccc(F)c1)C(=O)N2` [10736/D07]: in assay [1], the “PDGF Kinase % Inhibition (P.119)” value amounted to 4.4%. Besides, in assay [2], the “Biochem EGFR % Inhibition (P.167)” value was found to be 47.1%.

With `CNS(=O)(=O)c1ccc2c(c1)C(=Cc1ccccc1F)C(=O)N2` [10736/D08], the “PDGF Kinase % Inhibition (P.119)” value in assay [1] was determined as 1.8%. In addition, in assay [2], the “Biochem EGFR % Inhibition (P.167)” value is 90.9%.

As for `CCc1ccc(C=C2C(=O)Nc3ccc(S(=O)(=O)NC)cc32)cc1` [10736/D09], the “PDGF Kinase % Inhibition (P.119)” value in assay [1] is recorded as −6.5%. For the same compound, the “Biochem EGFR % Inhibition (P.167)” value in assay [2] is 66.8%.

In the case of `CNS(=O)(=O)c1ccc2c(c1)C(=Cc1cccc(OC)c1)C(=O)N2` [10736/D10], in assay [1], the “PDGF Kinase % Inhibition (P.119)” value is recorded as −2.1%. In assay [2], the “Biochem EGFR % Inhibition (P.167)” value is recorded as 10.5%.

As to `CNS(=O)(=O)c1ccc2c(c1)C(=Cc1ccccc1Cl)C(=O)N2` [10736/D11], the “PDGF Kinase % Inhibition (P.119)” value in assay [1] was −4.3%. Also, in assay [2], the “Biochem EGFR % Inhibition (P.167)” value was determined as 51.7%.

Turning to `O=C1Nc2ccc(S(=O)(=O)Nc3ccc(C(F)(F)F)cc3)cc2C1=Cc1ccc(Cl)cc1` [10736/E02], in assay [1], the “PDGF Kinase % Inhibition (P.119)” value came to 21.5%. Besides, the “Biochem EGFR % Inhibition (P.167)” value in assay [2] is given as 2.0%.

For the compound `O=C1Nc2ccc(S(=O)(=O)Nc3ccc(C(F)(F)F)cc3)cc2C1=Cc1ccccc1C(F)(F)F` [10736/E03], the “PDGF Kinase % Inhibition (P.119)” value in assay [1] is recorded as 96.1%. For the same compound, the “Biochem EGFR % Inhibition (P.167)” value in assay [2] is 90.2%.

`Cc1cccc(C=C2C(=O)Nc3ccc(S(=O)(=O)Nc4ccc(C(F)(F)F)cc4)cc32)c1` [10736/E04]: in assay [1], the “PDGF Kinase % Inhibition (P.119)” value is on record as 24.6%. Also, in assay [2], the “Biochem EGFR % Inhibition (P.167)” value is reported as −17.2%.

`Cc1ccc(C=C2C(=O)Nc3ccc(S(=O)(=O)Nc4ccc(C(F)(F)F)cc4)cc32)cc1` [10736/E05]: in assay [1], the “PDGF Kinase % Inhibition (P.119)” value came to 18.5%. The “Biochem EGFR % Inhibition (P.167)” value in assay [2] is given as 17.0%.

Turning to `O=C1Nc2ccc(S(=O)(=O)Nc3ccc(C(F)(F)F)cc3)cc2C1=Cc1cccc(Cl)c1` [10736/E06], the “PDGF Kinase % Inhibition (P.119)” value in assay [1] is 10.6%. Also, the “Biochem EGFR % Inhibition (P.167)” value in assay [2] came to 47.3%.

Take `O=C1Nc2ccc(S(=O)(=O)Nc3ccc(C(F)(F)F)cc3)cc2C1=Cc1cccc(F)c1` [10736/E07]: the “PDGF Kinase % Inhibition (P.119)” value in assay [1] stood at 18.5%. In assay [2], the “Biochem EGFR % Inhibition (P.167)” value is −26.7%.

Regarding `O=C1Nc2ccc(S(=O)(=O)Nc3ccc(C(F)(F)F)cc3)cc2C1=Cc1ccccc1F` [10736/E08], in assay [1], the “PDGF Kinase % Inhibition (P.119)” value is reported as 7.9%. Moreover, in assay [2], the “Biochem EGFR % Inhibition (P.167)” value is recorded as −47.3%.

As for `CCc1ccc(C=C2C(=O)Nc3ccc(S(=O)(=O)Nc4ccc(C(F)(F)F)cc4)cc32)cc1` [10736/E09], the “PDGF Kinase % Inhibition (P.119)” value in assay [1] is −0.4%. For the same compound, the “Biochem EGFR % Inhibition (P.167)” value in assay [2] is on record as −40.1%.

As to `COc1cccc(C=C2C(=O)Nc3ccc(S(=O)(=O)Nc4ccc(C(F)(F)F)cc4)cc32)c1` [10736/E10], the “PDGF Kinase % Inhibition (P.119)” value in assay [1] was 26.8%. In addition, in assay [2], the “Biochem EGFR % Inhibition (P.167)” value is −24.0%.

As for `O=C1Nc2ccc(S(=O)(=O)Nc3ccc(C(F)(F)F)cc3)cc2C1=Cc1ccccc1Cl` [10736/E11], in assay [1], the “PDGF Kinase % Inhibition (P.119)” value worked out at 0.9%. Also, the “Biochem EGFR % Inhibition (P.167)” value in assay [2] is given as −74.1%.

Consider `O=C1Nc2ccc(S(=O)(=O)N3CCOCC3)cc2C1=Cc1ccc(Cl)cc1` [10736/F02], for which the “PDGF Kinase % Inhibition (P.119)” value in assay [1] is −14.4%. Besides, the “Biochem EGFR % Inhibition (P.167)” value in assay [2] is listed as −4.5%.

For the compound `O=C1Nc2ccc(S(=O)(=O)N3CCOCC3)cc2C1=Cc1ccccc1C(F)(F)F` [10736/F03], in assay [1], the “PDGF Kinase % Inhibition (P.119)” value is given as −3.0%. For the same compound, the “Biochem EGFR % Inhibition (P.167)” value in assay [2] was found to be 94.0%.

Consider `Cc1cccc(C=C2C(=O)Nc3ccc(S(=O)(=O)N4CCOCC4)cc32)c1` [10736/F04], for which the “PDGF Kinase % Inhibition (P.119)” value in assay [1] worked out at 3.6%. Besides, the “Biochem EGFR % Inhibition (P.167)” value in assay [2] is −21.7%.

In the case of `Cc1ccc(C=C2C(=O)Nc3ccc(S(=O)(=O)N4CCOCC4)cc32)cc1` [10736/F05], the “PDGF Kinase % Inhibition (P.119)” value in assay [1] is −4.8%. Further, the “Biochem EGFR % Inhibition (P.167)” value in assay [2] is −6.0%.

On to `O=C1Nc2ccc(S(=O)(=O)N3CCOCC3)cc2C1=Cc1cccc(Cl)c1` [10736/F06], for which the “PDGF Kinase % Inhibition (P.119)” value in assay [1] amounted to 12.3%. In assay [2], the “Biochem EGFR % Inhibition (P.167)” value was found to be 25.1%.

As to `O=C1Nc2ccc(S(=O)(=O)N3CCOCC3)cc2C1=Cc1cccc(F)c1` [10736/F07], in assay [1], the “PDGF Kinase % Inhibition (P.119)” value was −4.3%. Further, in assay [2], the “Biochem EGFR % Inhibition (P.167)” value is given as −12.1%.

`O=C1Nc2ccc(S(=O)(=O)N3CCOCC3)cc2C1=Cc1ccccc1F` [10736/F08]: in assay [1], the “PDGF Kinase % Inhibition (P.119)” value is −20.1%. Further, in assay [2], the “Biochem EGFR % Inhibition (P.167)” value is recorded as −2.8%.

Turning to `CCc1ccc(C=C2C(=O)Nc3ccc(S(=O)(=O)N4CCOCC4)cc32)cc1` [10736/F09], the “PDGF Kinase % Inhibition (P.119)” value in assay [1] turned out to be 2.7%. In addition, in assay [2], the “Biochem EGFR % Inhibition (P.167)” value was 6.3%.
